Assay results from the supplement of paper PMC7661543.
± gives the standard deviation of the averaged measurements.

Tests used:
Experiment in all cases: relative cell number vs DMSO control (72 h) (% of DMSO); higher = less growth inhibition (more cells)
Details in all cases: sgRNA knockout: sgNT
[1] = system: ZR-75-1
In short: (§1)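 Pooled Cas9-engineered breast cancer lines (12 sgRNA perturbations each), induced with 100 ng/mL doxycycline for 6 days, were seeded at 5000 cells per 96-well. Compounds were added at four 10-fold doses (10 nM–10 μM or 1 nM–1 μM) in duplicate for 72 h. Cell numbers were interpolated from sequenced sgRNA and cell-line barcode reads using sample-specific 293T spike-in standard curves. Relative cell number is expressed as percent of the median of DMSO-treated samples.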

[2] = system: HCC-38
In short: as §1

[3] = system: MDA-MB-231
In short: as §1

[4] = system: BT-20
In short: as §1

[5] = system: SKBR3
In short: as §1

SMILES | relative cell number ([1]; 10 nM) | relative cell number ([1]; 100 nM) | relative cell number ([1]; 1000 nM) | relative cell number ([1]; 10000 nM) | relative cell number ([2]; 10 nM) | relative cell number ([2]; 100 nM) | relative cell number ([2]; 1000 nM) | relative cell number ([2]; 10000 nM) | relative cell number ([3]; 10 nM) | relative cell number ([3]; 100 nM) | relative cell number ([3]; 1000 nM) | relative cell number ([3]; 10000 nM) | relative cell number ([4]; 10 nM) | relative cell number ([4]; 100 nM) | relative cell number ([4]; 1000 nM) | relative cell number ([4]; 10000 nM) | relative cell number ([5]; 10 nM) | relative cell number ([5]; 100 nM) | relative cell number ([5]; 1000 nM) | relative cell number ([5]; 10000 nM) | relative cell number ([1]; 1 nM) | relative cell number ([2]; 1 nM) | relative cell number ([3]; 1 nM) | relative cell number ([4]; 1 nM) | relative cell number ([5]; 1 nM)
CC(=O)Nc1cccc(-n2c(=O)n(C3CC3)c(=O)c3c(Nc4ccc(I)cc4F)n(C)c(=O)c(C)c32)c1 [Trametinib] | 101 ± 9.6 | 51.9 ± 2.8 | 43.3 ± 13 | 40.3 ± 22 | 100 ± 5.3 | 78 ± 5.7 | 79.2 ± 5.8 | 71.3 ± 2.2 | 102 ± 27 | 66.9 ± 6 | 39.9 ± 6 | 20.1 ± 2.6 | 97.3 ± 1.3 | 65.2 ± 12 | 70.5 ± 16 | 82.8 ± 37 | 116 ± 3.5 | 72.4 ± 22 | 87 ± 36 | 58.7 ± 19 | – | – | – | – | –
CN1CCN(CCCN2c3ccccc3Sc3ccc(C(F)(F)F)cc32)CC1 [Trifluoperazine] | 77.4 ± 46 | 81.3 ± 30 | 80.7 ± 20 | 37.4 ± 5.8 | 97.3 ± 7 | 86.1 ± 5.2 | 111 ± 8.7 | 80.4 ± 6.6 | 77.9 ± 18 | 117 ± 43 | 99.2 ± 25 | 77.8 ± 7.4 | 80.3 ± 46 | 90.7 ± 11 | 82.4 ± 4.9 | 78.4 ± 15 | 57.9 ± 35 | 79 ± 23 | 80.65 ± 0.72 | 50.3 ± 10 | – | – | – | – | –
CC(C)[C@]12O[C@H]1[C@@H]1O[C@]13[C@]1(O[C@H]1C[C@H]1C4=C(CC[C@@]13C)C(=O)OC4)[C@@H]2O [Triptolide] | 78 ± 18 | 11.3 ± 8.5 | 7.98 ± 1.1 | – | 66 ± 0.14 | 23.4 ± 5.6 | 20.5 ± 2.7 | – | 44 ± 14 | 16.5 ± 7.3 | 13.7 ± 4.4 | – | 94.44 ± 0.19 | 39.9 ± 12 | 20.8 ± 7.7 | – | 54.6 ± 19 | 12.4 ± 9 | 8.93 ± 1.3 | – | 71.2 ± 23 | 97.9 ± 20 | 86.6 ± 8.6 | 93.1 ± 20 | 83.4 ± 9
CN1CCc2c(c3ccccc3n2Cc2ccc(C(=O)NO)cc2)C1 [TubastatinA] | 80 ± 12 | 74 ± 43 | 93.1 ± 40 | 40.4 ± 1.6 | 122 ± 20 | 88.7 ± 16 | 114 ± 8.2 | 66 ± 2.6 | 81.3 ± 19 | 95.1 ± 14 | 138 ± 27 | 50.6 ± 17 | 98.7 ± 12 | 97.3 ± 11 | 116.9 ± 0.46 | 81.4 ± 33 | 104 ± 5.4 | 59.2 ± 14 | 86.4 ± 15 | 25.7 ± 14 | – | – | – | – | –
Cc1onc(-c2ccccc2)c1-c1ccc(S(N)(=O)=O)cc1 [Valdecoxib] | 95.3 ± 73 | 76.8 ± 16 | 102 ± 37 | 112 ± 1.4 | 111 ± 12 | 91.8 ± 8.2 | 99.8 ± 13 | 98.4 ± 16 | 100 ± 22 | 113 ± 13 | 87.1 ± 4.7 | 82.6 ± 1.5 | 101 ± 5.5 | 107 ± 17 | 102 ± 21 | 99.62 ± 0.51 | 76.8 ± 16 | 86.5 ± 37 | 88.5 ± 38 | 124 ± 34 | – | – | – | – | –
C[C@]1(c2nc3c(C(N)=O)cccc3[nH]2)CCCN1 [Veliparib] | 88.9 ± 56 | 96.9 ± 12 | 97.1 ± 24 | 51.4 ± 4.1 | 106 ± 11 | 104 ± 4.2 | 107 ± 18 | 89.6 ± 4.9 | 135 ± 51 | 144 ± 30 | 148 ± 33 | 97.2 ± 8.6 | 109 ± 41 | 116 ± 15 | 118 ± 38 | 91.9 ± 25 | 107 ± 26 | 104 ± 11 | 97.2 ± 27 | 72.7 ± 38 | – | – | – | – | –
CC[C@]1(O)C[C@H]2CN(CCc3c([nH]c4ccccc34)[C@@](C(=O)OC)(c3cc4c(cc3OC)N(C=O)[C@H]3[C@@](O)(C(=O)OC)[C@H](OC(C)=O)[C@]5(CC)C=CCN6CC[C@]43[C@@H]65)C2)C1 [Vincristine] | 36.6 ± 5.9 | 22.3 ± 1.7 | 9.69 ± 0.85 | 17.1 ± 4.5 | 23.2 ± 4 | 22.5 ± 2.4 | 21.8 ± 2.9 | 21.1 ± 1.5 | 30.7 ± 3.3 | 14.4 ± 2.7 | 9.81 ± 3.5 | 8.55 ± 3.1 | 34.7 ± 4.6 | 22.5 ± 6.4 | 28.17 ± 0.087 | 34.5 ± 1.1 | 5.25 ± 0.24 | 3.5 ± 2.5 | 8.88 ± 0.92 | 6.97 ± 4.4 | – | – | – | – | –
CCC[C@H](NC(=O)/C(C#N)=C/c1cccc(Br)n1)c1ccccc1 [WP1130] | 96.9 ± 44 | 59.7 ± 4.9 | 92.2 ± 22 | 6.81 ± 2.8 | 92.9 ± 2.6 | 103 ± 6.8 | 83.8 ± 11 | 6.78 ± 2 | 100 ± 26 | 87.3 ± 10 | 116 ± 47 | 11.7 ± 3.7 | 101 ± 53 | 78.7 ± 6.8 | 100 ± 7 | 8.98 ± 1.4 | 84 ± 36 | 51.2 ± 6.4 | 111 ± 7.9 | 8.93 ± 1.9 | – | – | – | – | –
COCC[n+]1c2c(n(Cc3cnccn3)c1C)C(=O)c1ccccc1C2=O [YM155] | 23.9 ± 13 | 6.08 ± 4.9 | 3.11 ± 2.6 | – | 20.2 ± 2 | 4.12 ± 0.77 | 5.13 ± 0.38 | – | 27.1 ± 0.85 | 6.58 ± 1.3 | 4.86 ± 1.3 | – | 41.8 ± 5 | 4.66 ± 1.7 | 5.07 ± 2.5 | – | 62.2 ± 7.2 | 6.9 ± 0.62 | 4.71 ± 4.5 | – | 87.2 ± 46 | 54.7 ± 3.2 | 75.1 ± 3.9 | 88.6 ± 16 | 79.4 ± 20
FC(F)c1nc2ccccc2n1-c1nc(N2CCOCC2)nc(N2CCOCC2)n1 [ZSTK474] | 85.1 ± 10 | 96.2 ± 4.4 | 53.6 ± 27 | 50 ± 12 | 90.3 ± 4.3 | 94.3 ± 9.2 | 83.4 ± 7.9 | 56.2 ± 1.8 | 92.9 ± 15 | 89.6 ± 34 | 81.7 ± 4.7 | 76.3 ± 15 | 79.2 ± 5 | 99.2 ± 19 | 70.9 ± 21 | 55.4 ± 3 | 93.1 ± 1.6 | 85 ± 15 | 60.2 ± 41 | 39.1 ± 6.5 | – | – | – | – | –
O=c1ncccn1[C@@H]1O[C@H](CO)[C@@H](O)[C@H]1O [Zebularine] | 84.7 ± 48 | 66 ± 3.3 | 108 ± 26 | 117 ± 5.5 | 112 ± 28 | 107 ± 6.2 | 107 ± 1.8 | 115 ± 7.4 | 108 ± 38 | 121 ± 22 | 93.6 ± 0.27 | 72.7 ± 13 | 96.6 ± 7.1 | 83.6 ± 14 | 88.3 ± 38 | 119 ± 24 | 98.7 ± 28 | 83.6 ± 30 | 83.8 ± 14 | 106 ± 9.4 | – | – | – | – | –
